Drawing on US5939416A, “Benzo (5,6) cycloheptapyridine compounds useful as farnesyl protein transferase inhibitors” (Schering Corporation, priority 1997, dated 1999), this text covers IC50 for four molecules.

Test [1] has as its system COS Cell. Put plainly: COS Cell IC50 (Cell-Based Assay). Here is the method: (§1) FPT IC50 (inhibition of farnesyl protein transferase, in vitro enzyme assay), COS Cell IC50 (Cell-Based Assay), GGPT IC50 (inhibition of geranylgeranyl protein transferase, in vitro enzyme assay), Cell Mat Assay, and anti-tumor activity (in vivo anti-tumor studies) are determined by the assay procedures described in WO 95/10516.

The target of test [2] is farnesyl protein transferase (Homo sapiens, UniProt P49354+P49356). Kind of test: FPT IC50 (inhibition of farnesyl protein transferase, in vitro enzyme assay). It counts as biochemical. Here is the method: as §1

What is called IC50 is the midpoint of a concentration-inhibition curve. High values mean weaker potency in that assay, low ones greater potency in that assay. As to `O=C1NCC(CC(=O)N2CCC(C3c4ncc(Br)cc4CCc4cc(Cl)cc(Cl)c43)CC2)CO1` (centres unmarked) [Example 1, 4-(3-Bromo-8,10-dichloro-6,11-dihydro-5H-benzo[5,6]cyclohepta[1,2-b]pyridin-11-yl)-1-[(tetrahydro-2-oxo-2H-1 3-oxazin-5-yl)acetyl]piperidine], the IC50 in test [1] stood at 50 nM; in test [2], 15 nM.

For `O=C1NCC(CC(=O)N2CCC(C3c4ncc(Br)cc4CCc4cc(Cl)cc(Br)c43)CC2)CO1` (centres unmarked) [Example 2, 4-(3,10-Dibromo-8-chloro-6,11-dihydro-5H-benzo[5,6]cyclohepta[1,2-b]pyridin-11-yl)-1-[(tetrahydro-2-oxo-2H-1,3-oxazin-5-yl)acetyl]piperidine], the values for the IC50 in test [1] and in test [2] were 9 nM and 3.98 nM, respectively.

Take `O=C1N[C@H](C(=O)N2CCC(CC(=O)N3CCC([C@H]4c5ncc(Br)cc5CCc5cc(Cl)cc(Br)c54)CC3)CC2)CO1` [Example 3]: the figures for the IC50 in test [1] and in test [2] were 7 nM and 2.3 nM, respectively.

As for `O=C1NC[C@@H](C(=O)N2CCC(CC(=O)N3CCC([C@H]4c5ncc(Br)cc5CCc5cc(Cl)cc(Br)c54)CC3)CC2)N1` [Example 4], the half-inhibitory concentration (IC50) amounted to 33 nM in test [1] and 1.8 nM in test [2].
